In patent publication US20130225406A1 (priority 2010, published 2013):

System: Trioza erytreae
Assay type: in vivo

With CC1(S(=O)(=O)[O-])CC(=O)c2ccccc2C1=O.[Na+] (centres unmarked) [MSB, menadione sodium bisulphite] the “trees that showed leaves with the typical symptoms of the Trioza erytreae attack” value (Plot A 2000 trees, Plot B 300 trees, Plot C 100 trees, end of the summer of 2010) was “None” and the “control of the Trioza erytreae attacks” value (citrus trees, foliar treatment once a month with 80 ppm of MSB in aqueous solution from February 2010, assessed at the end of the summer of 2010) was 100%.
